# “Also recorded” adds a separate entry of the source. Read-outs that look alike come from different tables or passages of the source.
# Columns and labels:
# [1] = biological target: T1, CYP2B6 (Homo sapiens, UniProt P20813); test: biochemical
# T1 sequence (P20813 1-491): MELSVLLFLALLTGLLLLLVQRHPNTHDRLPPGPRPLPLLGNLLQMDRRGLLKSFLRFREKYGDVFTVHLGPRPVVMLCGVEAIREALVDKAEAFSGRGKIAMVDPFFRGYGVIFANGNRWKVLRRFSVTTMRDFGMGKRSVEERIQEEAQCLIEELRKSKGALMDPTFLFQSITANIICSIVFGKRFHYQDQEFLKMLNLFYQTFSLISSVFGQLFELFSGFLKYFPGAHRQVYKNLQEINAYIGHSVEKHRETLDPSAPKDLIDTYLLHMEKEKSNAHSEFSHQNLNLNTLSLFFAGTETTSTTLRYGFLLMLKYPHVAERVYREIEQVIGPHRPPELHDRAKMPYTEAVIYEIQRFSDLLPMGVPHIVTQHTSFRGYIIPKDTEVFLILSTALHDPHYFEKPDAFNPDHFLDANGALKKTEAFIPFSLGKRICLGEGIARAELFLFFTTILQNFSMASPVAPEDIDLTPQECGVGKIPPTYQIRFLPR
# [2] = tested on: rat CYP enzymes (probe drug cocktail); design: method as in PMID 29796228; conditions: salidroside 30 mg/kg/day, eight daily doses, day 8; cited from earlier work
# [3] = biological target: T2, CYP2C8 (Homo sapiens, UniProt P10632); conditions: microsomes
# T2 sequence (P10632 1-490): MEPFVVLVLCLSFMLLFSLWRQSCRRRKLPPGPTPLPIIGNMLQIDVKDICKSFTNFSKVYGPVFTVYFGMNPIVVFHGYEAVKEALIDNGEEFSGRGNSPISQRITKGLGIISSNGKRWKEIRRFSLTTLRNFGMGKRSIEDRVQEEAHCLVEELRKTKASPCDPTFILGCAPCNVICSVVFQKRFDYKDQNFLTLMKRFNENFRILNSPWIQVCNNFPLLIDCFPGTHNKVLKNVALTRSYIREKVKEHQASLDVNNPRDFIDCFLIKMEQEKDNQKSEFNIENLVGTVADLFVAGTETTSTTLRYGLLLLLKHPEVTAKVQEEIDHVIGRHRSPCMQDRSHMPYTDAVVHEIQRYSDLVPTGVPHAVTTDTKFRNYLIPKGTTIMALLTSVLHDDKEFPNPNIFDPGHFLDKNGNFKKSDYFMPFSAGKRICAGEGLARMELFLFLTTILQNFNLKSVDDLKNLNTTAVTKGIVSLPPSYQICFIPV
# [4] = design: method as in PMID 35684130; conditions: multiple oral dose rat study; cited from earlier work
# [5] = biological target: T1, CYP2B6; test: biochemical; remark: listed apart in the source
# [6] = biological target: CYP2D6 (Homo sapiens, UniProt P10635); test: Time-dependent inhibition (IC50 shift) in human liver microsomes
# [7] = tested on: CYP3A4/5; conditions: microsomes
# [8] = biological target: CYP2C9 (Homo sapiens, UniProt P11712); test: Time-dependent inhibition (IC50 shift) in human liver microsomes
# [9] = biological target: T3, OATP1B1 (Homo sapiens, UniProt Q9Y6L6); test: Uptake transport inhibition in HEK293-OATP1B1 cells
# T3 sequence (Q9Y6L6 1-691): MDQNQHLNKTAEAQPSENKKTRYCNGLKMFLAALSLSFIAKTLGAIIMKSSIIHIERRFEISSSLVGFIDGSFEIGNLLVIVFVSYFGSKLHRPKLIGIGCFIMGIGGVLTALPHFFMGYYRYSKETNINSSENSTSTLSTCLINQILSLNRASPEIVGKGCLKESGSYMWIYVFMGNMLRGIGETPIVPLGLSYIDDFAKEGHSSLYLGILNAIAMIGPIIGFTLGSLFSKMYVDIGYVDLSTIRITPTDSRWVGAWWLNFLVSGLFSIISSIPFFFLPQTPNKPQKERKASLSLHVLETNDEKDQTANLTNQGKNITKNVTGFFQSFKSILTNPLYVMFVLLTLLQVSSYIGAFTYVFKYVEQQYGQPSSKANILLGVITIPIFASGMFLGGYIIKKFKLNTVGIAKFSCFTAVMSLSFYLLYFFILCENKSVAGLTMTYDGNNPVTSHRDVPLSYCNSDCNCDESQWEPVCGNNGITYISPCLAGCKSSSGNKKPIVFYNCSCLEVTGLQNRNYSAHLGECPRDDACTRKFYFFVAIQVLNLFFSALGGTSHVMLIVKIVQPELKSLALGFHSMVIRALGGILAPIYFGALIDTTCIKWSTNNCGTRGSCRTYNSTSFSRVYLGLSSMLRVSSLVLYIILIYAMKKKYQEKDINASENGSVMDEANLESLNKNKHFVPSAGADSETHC
# Experimental: HEK293-OATP1B1 and OATP1B3 cells were diluted to 1 × 10^6 cells/mL with DMEM supplemented with 1% non-essential amino acid (NEAA), 10% fetal bovine serum (FBS), 1% PS solution (100 U/mL penicillin-G and 100 μg/mL streptomycin), and seeded on a 96-well BioCoat™ poly-d-lysine plate at a density of 1 × 10^6 cells/mL. […] Once the cells were anchored on the plate, the cell culture was replaced with DMEM containing 10% FBS and 1% PS solution (100 U/mL penicillin-G and 100 μg/mL streptomycin solution) and cultured one day for the uptake and inhibition studies. The cell culture medium was removed from the 96-well plate, then rinsed twice with 0.1 mL/well of pre-warmed transport buffer. The transporter cells containing pre-incubation solution were pre-incubated at 37 °C for 30 min. Then the pre-incubation solution was removed and replaced with 0.1 mL/well of dosing solution containing a substrate, respectively (blank transporter buffer containing a substrate, transport buffer containing a substrate and PC, and transport buffer containing a substrate and salidroside). Then, the transporter cells were incubated at 37 °C for 2 min. After incubation, all solutions in the cells were discarded and rinsed with 0.10 mL/well of ice-cold transport buffer (4 °C) three times. […] All samples were shaken and centrifuged at 4000 rpm at 4 °C for 15 min and the supernatant was removed for future analysis by LC-MS/MS.
# Enzyme activity (%) = PAR with compound/PAR vehicle × 100.
# Estradiol-17β-glucuronide (substrate) was incubated with an OATP1B1-transfected HEK293 cell monolayer in the presence or absence of salidroside at concentrations up to 100 µM.
# [10] = tested on: MAO-A; design: method as in PMID 19168123; conditions: isolated compound at 10 µM; cited from earlier work
# Chain of CYP2D6 (P10635 whole entry): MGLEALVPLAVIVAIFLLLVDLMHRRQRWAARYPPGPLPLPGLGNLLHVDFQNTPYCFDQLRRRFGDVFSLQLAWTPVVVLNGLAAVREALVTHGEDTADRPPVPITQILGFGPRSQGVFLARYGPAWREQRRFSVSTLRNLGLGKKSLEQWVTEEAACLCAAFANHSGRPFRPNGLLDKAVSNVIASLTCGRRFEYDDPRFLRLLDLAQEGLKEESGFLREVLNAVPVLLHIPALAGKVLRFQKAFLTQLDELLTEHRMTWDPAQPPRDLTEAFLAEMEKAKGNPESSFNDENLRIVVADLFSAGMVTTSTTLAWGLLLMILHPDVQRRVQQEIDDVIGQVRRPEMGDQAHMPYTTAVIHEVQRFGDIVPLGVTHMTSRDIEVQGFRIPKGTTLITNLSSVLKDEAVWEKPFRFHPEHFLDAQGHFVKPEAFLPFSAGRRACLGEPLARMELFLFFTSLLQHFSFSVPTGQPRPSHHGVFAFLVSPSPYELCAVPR
# Chain of CYP2C9 (P11712 whole entry): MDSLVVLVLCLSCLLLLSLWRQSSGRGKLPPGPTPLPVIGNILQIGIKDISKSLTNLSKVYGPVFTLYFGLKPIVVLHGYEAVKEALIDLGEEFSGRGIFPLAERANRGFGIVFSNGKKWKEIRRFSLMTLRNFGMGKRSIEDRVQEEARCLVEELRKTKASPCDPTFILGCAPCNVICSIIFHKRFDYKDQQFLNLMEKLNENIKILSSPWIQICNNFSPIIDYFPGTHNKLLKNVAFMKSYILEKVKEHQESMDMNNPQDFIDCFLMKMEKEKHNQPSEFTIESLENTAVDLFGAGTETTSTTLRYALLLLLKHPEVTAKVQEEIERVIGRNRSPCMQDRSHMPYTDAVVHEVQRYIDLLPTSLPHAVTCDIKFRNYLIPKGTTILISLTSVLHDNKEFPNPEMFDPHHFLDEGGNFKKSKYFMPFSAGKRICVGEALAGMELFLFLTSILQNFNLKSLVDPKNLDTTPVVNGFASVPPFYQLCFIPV
smiles,measurement,setting,value
OC[C@H]1O[C@@H](OCCc2ccc(O)cc2)[C@H](O)[C@@H](O)[C@@H]1O [Salidroside],IC50,[1],> 50 µM
same,decrease of losartan AUC0-∞,[2],≈ 2 fold
same,decrease of midazolam AUC0-∞,[2],≈ 2 fold
same,IC50 Shift,[3],no shift
same,no observed adverse effect level (NOAEL),[4],≥ 2000 mg/kg/day
same,IC50,[5],> 50 µM
same,IC50,[6],> 50 µM
same,IC50 Shift,[7],no shift
same,IC50,[8],> 50 µM
same,IC50,[9],> 100 µM
same,"activity at 2 min, 100 µM",[9]; human,84.4%
same,"inhibition at 2 min, 100 µM",[9]; human,15.5%
same,mean % of control activity / inhibition of OATP1B1,"[9]; up to concentrations of 33.3 mM, 33.3 µM",unchanged; also recorded: no inhibition
same,inhibition of MAO-A,[10],inactive
